Where two headings read alike, the source gives them in different places.
Test system: Mycosphaerella graminicola; Anamorph: Septoria tritici; Bayer Code SEPTTR
Assay: Leaf blotch of wheat, foliar fungicide treatment, one day protectant (1DP) or three day curative (3DC)
Format: in vivo, Septoria tritici on wheat plants (variety Yuma)
Settings: Zymoseptoria tritici, rating of percent disease control
[1] = 24 h, one day protectant, read-out: SETTTR 1DP 25 ppm
[2] = 24 h, one day protectant, read-out: SEPTTR 1DP 100 ppm
[3] = 72 h, three day curative, read-out: SEPTTR 3DC 25 ppm
[4] = 72 h, three day curative, read-out: SEPTTR 3DC 100 ppm

| SMILES | pest or weed control at 25 ppm [1] [%] | pest or weed control at 100 ppm [2] [%] | pest or weed control at 25 ppm [3] [%] | pest or weed control at 100 ppm [4] [%] |
| --- | --- | --- | --- | --- |
| CC#CCOc1ncc(F)c(NCO)n1 [Compound 559] | 51 to 75 | 76 to 100 | 76 to 100 | 76 to 100 |
| CC[Si](CC)(CC)Nc1nc(OCc2ccc(C)cc2)ncc1F [Compound 561] | 76 to 100 | 76 to 100 | 76 to 100 | 76 to 100 |
| COc1cccc(COc2ncc(F)c(NN3CCCCC3)n2)c1 [Compound 562] | 0 to 25 | 0 to 25 | 0 to 25 | 26 to 50 |
| Cc1cc(C)cc(COc2ncc(F)c(N)n2)c1 [Compound 564] | 51 to 75 | 76 to 100 | 26 to 50 | 76 to 100 |
| CCCNC(=O)Nc1nc(OCc2cccc(F)c2)ncc1F [Compound 566] | 0 to 25 | 0 to 25 | 0 to 25 | 0 to 25 |
| CCCNC(=S)Nc1nc(OCc2cccc(F)c2)ncc1F [Compound 568] | 51 to 75 | 76 to 100 | 76 to 100 | 76 to 100 |
| COc1ccccc1COc1ncc(F)c(NCO)n1 [Compound 571] | 76 to 100 | 76 to 100 | 76 to 100 | 76 to 100 |
| Fc1ccc(COc2ncc(F)c(NC(=S)NCc3ccccc3F)n2)cc1 [Compound 572] | 26 to 50 | 76 to 100 | 26 to 50 | 51 to 75 |
| COc1ccc(Oc2ncc(F)c(N)n2)cc1 [Compound 573] | 26 to 50 | 51 to 75 | 0 to 25 | 0 to 25 |
| Nc1nc(OCc2ccc(Cl)c(Cl)c2)ncc1F [Compound 574] | 76 to 100 | 76 to 100 | 76 to 100 | 76 to 100 |
| CC(Oc1ncc(F)c(N)n1)c1cccc([N+](=O)[O-])c1 (stereo not shown) [Compound 576] | 26 to 50 | 76 to 100 | 26 to 50 | 76 to 100 |
| Cc1csc(COc2ncc(F)c(N)n2)c1 [Compound 577] | 76 to 100 | 76 to 100 | 76 to 100 | 76 to 100 |
| Nc1nc(OCc2cc3cccnc3s2)ncc1F [Compound 578] | 76 to 100 | 76 to 100 | 76 to 100 | 76 to 100 |
| Nc1nc(OCc2cccnc2Cl)ncc1F [Compound 580] | 51 to 75 | 76 to 100 | 0 to 25 | 51 to 75 |
| COc1cc(COc2ncc(F)c(N)n2)ccc1F [Compound 581] | 76 to 100 | 76 to 100 | 76 to 100 | 76 to 100 |
| Nc1nc(OCCNc2ccccc2)ncc1F [Compound 583] | 0 to 25 | 76 to 100 | 76 to 100 | 76 to 100 |
| CN(C)/C=N/c1nc(OC(=O)c2ccc(Cl)cc2)ncc1F [Compound 585] | 76 to 100 | 76 to 100 | 76 to 100 | 76 to 100 |
| COc1cccc(COc2ncc(F)c(N3CCOCC3)n2)c1 [Compound 586] | 0 to 25 | 0 to 25 | 0 to 25 | 0 to 25 |
| O=C(Nc1ccsc1)Nc1nc(OCc2ccc(F)cc2)ncc1F [Compound 587] | 0 to 25 | 0 to 25 | 26 to 50 | 76 to 100 |
| CNc1nc(OCc2ccc(OC)c(OC)c2)ncc1F [Compound 589] | 0 to 25 | 0 to 25 | 0 to 25 | 0 to 25 |
| COc1ccc(COc2ncc(F)c(N)n2)cc1F [Compound 590] | 76 to 100 | 76 to 100 | 76 to 100 | 76 to 100 |
| Cc1cc(C)cc(C(C)Oc2ncc(F)c(N)n2)c1 (stereo not shown) [Compound 592] | 76 to 100 | 76 to 100 | 76 to 100 | 76 to 100 |
| COc1cccc(COc2ncc(F)c(NOCc3ccccc3)n2)c1 [Compound 594] | 0 to 25 | 51 to 75 | 0 to 25 | 26 to 50 |

| SMILES | pest or weed control at 25 ppm [1] [%] | pest or weed control at 100 ppm [2] [%] | pest or weed control at 25 ppm [3] [%] | pest or weed control at 100 ppm [4] [%] |
| --- | --- | --- | --- | --- |
| Cn1ccc(COc2ncc(F)c(NC(=S)NCc3ccccc3F)n2)n1 [Compound 595] | 26 to 50 | 76 to 100 | 0 to 25 | 0 to 25 |
| Nc1nc(OCc2ccc(OC(F)(F)F)cc2)ncc1F [Compound 596] | 76 to 100 | 76 to 100 | 76 to 100 | 76 to 100 |
| Cc1cc(C(C)Oc2ncc(F)c(N)n2)ccc1Cl (stereo not shown) [Compound 597] | 76 to 100 | 76 to 100 | 76 to 100 | 76 to 100 |
| CC[Si](CC)(CC)Nc1nc(OCc2cccc(C#N)c2)ncc1F [Compound 599] | 51 to 75 | 76 to 100 | 76 to 100 | 76 to 100 |
| CCOCNc1nc(OCc2cccc(OC)c2)ncc1F [Compound 601] | 76 to 100 | 76 to 100 | 76 to 100 | 76 to 100 |
| Cc1cccc(COc2ncc(F)c(N)n2)c1C [Compound 602] | 0 to 25 | 51 to 75 | 0 to 25 | 0 to 25 |
| COc1cccc(COc2ncc(F)c(N/N=C/c3nc(C)cs3)n2)c1 [Compound 603] | 26 to 50 | 76 to 100 | 0 to 25 | 0 to 25 |
| Nc1nc(OCc2ccccc2Br)ncc1F [Compound 604] | 76 to 100 | 76 to 100 | 76 to 100 | 76 to 100 |
| CC[Si](CC)(CC)Nc1nc(Oc2ccc(OC)cc2)ncc1F [Compound 605] | 51 to 75 | 76 to 100 | 0 to 25 | 76 to 100 |
| CC(Oc1ncc(F)c(N)n1)c1ccc(Cl)c(Cl)c1Cl (stereo not shown) [Compound 607] | 0 to 25 | 0 to 25 | 0 to 25 | 26 to 50 |
| COc1cccc(COc2ncc(F)c(N(C)N)n2)c1 [Compound 608] | 51 to 75 | 76 to 100 | 51 to 75 | 76 to 100 |
| COc1cccc(COc2ncc(F)c(N)n2)c1OC [Compound 609] | 76 to 100 | 76 to 100 | 76 to 100 | 76 to 100 |
| Cc1ccc(OC(=O)Oc2ncc(F)c(/N=C/N(C)C)n2)cc1 [Compound 610] | 76 to 100 | 76 to 100 | 26 to 50 | 51 to 75 |
| Nc1nc(OS(=O)(=O)c2ccc(Cl)cc2)ncc1F [Compound 611] | 76 to 100 | 76 to 100 | 76 to 100 | 76 to 100 |
| N#Cc1cccc(COc2ncc(F)c(NSc3ccccc3[N+](=O)[O-])n2)c1 [Compound 612] | 76 to 100 | 76 to 100 | 76 to 100 | 76 to 100 |
| Cc1ccc(COc2ncc(F)c(NC(=O)OCc3ccccc3)n2)cc1 [Compound 613] | 76 to 100 | 76 to 100 | 76 to 100 | 76 to 100 |
| CC(C)OCNc1nc(OCc2ccc(F)cc2)ncc1F [Compound 614] | 76 to 100 | 76 to 100 | 76 to 100 | 76 to 100 |
| CC(=O)Nc1nc(O/N=C(\C)c2ccccc2)ncc1F [Compound 616] | 76 to 100 | 76 to 100 | 76 to 100 | 76 to 100 |
| Cc1ccc(C(C)C)cc1C(C)Oc1ncc(F)c(N)n1 (stereo not shown) [Compound 617] | 76 to 100 | 76 to 100 | 76 to 100 | 76 to 100 |
| COc1cc(COc2ncc(F)c(N)n2)cc(OC)c1 [Compound 623] | 76 to 100 | 76 to 100 | 51 to 75 | 76 to 100 |
| CC(=O)Nc1nc(OCCc2ccc(Cl)cc2)ncc1F [Compound 624] | 51 to 75 | 76 to 100 | 51 to 75 | 76 to 100 |
| CSCCOc1ncc(F)c(N)n1 [Compound 625] | 0 to 25 | 26 to 50 | 0 to 25 | 26 to 50 |
| Nc1nc(OCc2nccs2)ncc1F [Compound 628] | 26 to 50 | 76 to 100 | 51 to 75 | 76 to 100 |

— patent US9204653B2, “5-fluoro pyrimidine derivatives” (DOW AGROSCIENCES LLC, priority 2008, dated 2015)
